Here are results for two sequences from patent US10603357B2, “Therapeutic TREM-1 peptides” (Universite de Lorraine, priority 2004, dated 2020).

The test system of experiment [1] is NF-κB p50 and p65. Kind of experiment: NF-κB activity in monocytes (ELISA-based assay). In kind it is cell-based, human. The note with it: P5 100 ng/mL, 24 hours. The method, then: Monocytes were cultured for 24 hours in the presence of E. coli LPS (O111:B4, 1 μg/mL), anti-TREM-1 mAb (10 μg/mL) and/or P5 (100 ng/mL) as indicated and the levels of NFκB p50 and p65 were determined using an ELISA-based assay. Experiments were performed in triplicate and data are expressed as means of optical densities (SEM).
In order to activate monocytes through TREM-1, an anti-TREM-1 agonist monoclonal antibody (R&D Systems) was added as follows: flat-bottom plates were precoated with 10 μg/mL anti-TREM-1 per well. After thorough washing in phosphate buffered saline (PBS), the monocyte suspensions were added at a similar concentration as above. Some experiments were performed in the presence of protease inhibitors (PMSF and Protease Cocktail Inhibitor; Invitrogen). Cell-free supernatants were assayed for the production of TNF-α and IL-1β by ELISA according to the recommendations of the manufacturer (BD Biosciences, San Diego, USA). To address the effect of P5 on NF-κB activity in monocytes, an ELISA-based assay was performed (BD Mercury™ Transfactor Kit, BD Biosciences). […] Whole-cell extracts were then prepared and levels of NF-κB p50 and p65 were determined according to the recommendations of the manufacturer. All experiments were performed in triplicate and data are expressed as means (SEM). Identification and Quantitation of sTREM-1 Release
Background: In an ELISA, binding on a coated surface is turned into a signal by an enzyme label.

Experiment [2] has as its system BALB/c mice. The experiment is described as follows: LPS-induced endotoxaemia, survival of mice (Example 1). The note with it: for animals alive 7 days after LPS injection: 200 μl of 300 μM peptide i.p. 1 hour before 200 μg LPS i.p., 10 mice per group (FIG. 2, 3); for protection (survival) from LPS: 4 hours after LPS (FIG. 4). In kind it is in vivo, mouse. The method, then:
BALB/c mice (10 per group) were injected intraperitoneally with 200 μg LPS. The TREM-1 peptides P1, P2, P3, or P5 (200 μl of a 300 μM solution per mouse) were injected intraperitoneally 1 hour before LPS. Viability of mice was monitored twice a day for 7 days. Statistical analysis was performed by Logrank test. Data from control mice represent cumulative survival curves from two independent experiments performed under identical conditions.
BALB/c mice (10 per group) were injected intraperitoneally with 200 μg LPS. TREM-1 peptide P1, 200 μl of a 300 μM solution per mouse was injected intraperitoneally 1 hour before or 4 hours after LPS. Viability of mice was monitored twice a day for 7 days. Statistical analysis was performed with the Logrank test. Data from control mice represent cumulative survival curves from two independent experiments performed under identical conditions
BALB/c mice (10 per group) were injected intraperitoneally with 200 μg LPS. P1 peptide, 200 μl of a 150, 300 and 600 μM solution per mouse (dots) or P3, 200 μl of a 600 μM solution per mouse (filled squares) were injected intraperitoneally 4 hours after LPS. Viability of mice was monitored twice a day for 7 days. Statistical analysis was performed with the Logrank test
In the experiments of this example, the peptides were administered in a volume of 200 μl of the solution molarity indicated. To assess the ability of TREM1-peptides to protect mice from LPS-induced endotoxaemia, the Inventors administered peptides P1, P2, P3 and P5 (300 μM) 1 hour before a lethal dose of lipopolysaccharide (LPS) (FIG. 2). Lethality was monitored over time and compared with animals that had received control injections of vehicle alone. P5 injection confers maximal protection, with 90% of the animals still alive 7 days after LPS injection, as compared with 10% of control mice (p<0.001). 60% of the P1-treated mice and 50% of the P2 treated mice survived endotoxaemia as compared with 10% of control mice (p<0.01 and p<0.05 respectively).
In order to investigate whether TREM-1 peptide treatment could be delayed until after the administration of LPS, the Inventors injected the peptides at 4 hours after LPS injection. […] 80% of the mice injected with P1 4 hours after LPS survived endotoxaemia compared to 60% of mice treated 1 h before LPS and 10% of mice treated with vehicle alone (p<0.001 and p<0.01 respectively). Thus, P1 is effective even when injected after the outbreak of endotoxaemia. […] P1 administration conferred maximal protection (80%) when administered at 600 μM (p<0.01) and the level of protection dropped to 50% at 300 μM (p<0.05) and further down to 30% at 150 μM as compared to 20% of control mice, indicating a dose dependent effect of P1 (FIG. 4). The Inventors then investigated whether P1 protects against septic shock in the “CLP” model (Cecal Ligation and Puncture is a widely used experimental model of sepsis). Mice treated with two doses of P1 at 5 and 24 hours after CLP were protected from death as compared to control treated mice (p=0.0791) although the difference was not statistically significant. 40% of the mice injected with P1 at 5 days after CLP survived compared to 5% of mice treated with P3 peptide.

In experiment [3] the test system is BALB/c mice. Kind of experiment: LPS-induced endotoxinemia in mice (Example 3). Format: in vivo, mouse. Conditions: for Serum IL-1β / Serum TNF-α / Serum sTREM-1: endotoxemic mice, 100 μg. The method, then:
P5 (50 μg or 100 μg) or control vector was administered 60 min before LPS.
P5 (75 μg) or control vector was administered 4 or 6 hours after LPS as indicated. […]
After approval by the local ethical committee, male Balb/C mice (20 to 23 g) were randomly grouped and treated with E. coli LPS intraperitoneally (i.p.) in combination with P5 (in 500 μl normal saline) or control vector before or after LPS challenge. In some experiments, 5 μg of an anti TREM-1 monoclonal antibody was administered i.p. one hour after LPS injection. The viability of mice was examined every hour, or animals were sacrificed at regular intervals. Serum samples were collected by cardiac puncture and assayed for TNF-α and IL-1β by ELISA (BD Biosciences), and for sTREM-1 levels by immunodot.

Experiment [4] relates to C57BL/6 mice. The experiment is described as follows: cecal ligation and puncture (CLP), survival of mice (Example 1). Format: in vivo, mouse. The note with it: 200 μl of 600 μM i.p. 5 and 24 hours after CLP; 5 days after CLP; 15 per group. The method, then:
CLP was induced in C57BL/6 mice (15 per group) as described in Materials and Methods. P1 peptide (empty dots) or P3 peptide (filled squares) (200 μl of a 600 μM solution per mouse) were injected intraperitoneally 5 and 24 hours after CLP induction. Viability of mice was monitored twice a day for 10 days. Statistical analysis was performed with the Logrank test.
In order to investigate whether TREM-1 peptide treatment could be delayed until after the administration of LPS, the Inventors injected the peptides at 4 hours after LPS injection. […] 80% of the mice injected with P1 4 hours after LPS survived endotoxaemia compared to 60% of mice treated 1 h before LPS and 10% of mice treated with vehicle alone (p<0.001 and p<0.01 respectively). Thus, P1 is effective even when injected after the outbreak of endotoxaemia. […] P1 administration conferred maximal protection (80%) when administered at 600 μM (p<0.01) and the level of protection dropped to 50% at 300 μM (p<0.05) and further down to 30% at 150 μM as compared to 20% of control mice, indicating a dose dependent effect of P1 (FIG. 4). The Inventors then investigated whether P1 protects against septic shock in the “CLP” model (Cecal Ligation and Puncture is a widely used experimental model of sepsis). […]

Setting [5] is: pre-treatment by 100 μg, 2 and 4 hours.

On to LQVTDSGLYRCVIYHPP [P5], for which, in experiment [1] (LPS 1 μg/mL), the “effect of LPS on NF-κB activation” value is “did not alter”. Besides, in experiment [1] (anti-TREM-1 mAb 10 μg/mL), the “NF-κB activation induced by the engagement of TREM-1” value is listed as “inhibited”. The “animals alive 7 days after LPS injection” value in experiment [2] amounted to 90%. Moreover, the “protection against LD100 dose of LPS, delayed treatment” value in experiment [3] (75 μg, delayed up to 4 hours after LPS) was “significant protection”. In experiment [3] (LD100 of LPS), the “clinical appearance of treated mice” value is “remained well groomed and active, had no diarrhoea, and were lively”; the “late death over one week” value is “No late death occurred”. In experiment [3] (H2), the “Serum IL-1β” value is 0.2 ± 0.1 ng/mL, the “Serum TNF-α” value came to 2.4 ± 0.5 ng/mL and the “Serum sTREM-1” value is reported as 475 ± 37 ng/mL. Moreover, in experiment [3] (H4), the “Serum IL-1β” value is on record as 0.9 ± 0.2 ng/mL, the “Serum TNF-α” value is 0.1 ± 0.1 ng/mL and the “Serum sTREM-1” value was 243 ± 28 ng/mL. In addition, in experiment [3] (setting [5]), the “increase of serum sTREM-1 levels compared to controls” value was 2 fold and the “reduction of serum cytokines levels compared to controls” value was determined as 30%. For the same sequence, the protection from death entry in experiment [3] (single dose (50 μg or 100 μg) 60 min before LD100 of LPS) is “prevented from death in a dose-dependent manner”.

For the sequence “LVVTQRPFTRPSEVHMGKFTLKH (listed as Mus musculus) [P1]”, the “mice surviving after CLP” value in experiment [4] came to 40%. Also, the “protection (survival) from LPS” value was 30% in experiment [2] (200 μl of 150 μM), 50% in experiment [2] (200 μl of 300 μM) and 80% in experiment [2] (200 μl of 600 μM). Also, the “animals alive 7 days after LPS injection” value in experiment [2] is 60%. Also, in experiment [2] (delayed treatment after LPS), the “late death over one week” value is recorded as “No late death occurred”. Besides, in experiment [2] (peptide 300 μM injected 4 hours after LPS (FIG. 3)), the mice surviving endotoxaemia came to 80%.
